“Also recorded” adds a separate entry of the source.
Experiments:
[1] = molecular target: T1, Cav1.1 channels (dihydropyridine receptors) (Mus musculus, UniProt Q02789); conditions: earlier results, stated in words; cited from earlier work
T1 construct: endogenous in cells; host or cells: single skeletal muscle fibers isolated from C57 mouse flexor digitorum brevis (FDB) muscle

fdb muscle fibers [2] = conditions: earlier results of the inventors; cited from earlier work
[3] = molecular target: T1, Cav1.1 channels (dihydropyridine receptors); assay: Whole cell voltage-clamp measurement of L-type Ca2+ currents in isolated fdb muscle fibers; type: cell-based; conditions: L-type calcium peak current, mouse skeletal muscle fibers, control = maximum current without drug, read-out: % inhibition of Ca^2+ current
[4] = test system: muscle fibers of normal mice; assay: qPCR of proinflammatory genes in muscle fibers exposed to extracellular ATP; type: cell-based, mouse; conditions: 300 μM extracellular ATP for 2 h
Method: Total RNA from the isolated muscle fiber culture was extracted using TRIzol (Invitrogen) according to the manufacturer's protocol. The cDNA was obtained by reverse transcription from 1 μg of total RNA, using the enzyme SuperScript II (Invitrogen) according to the manufacturer's protocol. Real-time qPCR assays were performed using a thermocycler (Stratagene Mx300P, Agilent) according to the following protocol. The reaction mix will be given by 1 μL 10×dNTPs, 0.5 μL sense primer (10 pmol/μL), 0.5 μL antisense primer (10 pmol/μL), 4 μL EVA Green (Invitrogen) and 1 μL cDNA. The final volume of the mix was brought to 20 μL by adding nuclease-free water. All primers have an optimal amplification efficiency (between 90-110%). In any case, the analysis of the data was carried out considering a correction of the amplification cycle of each gene according to the amplification efficiency of the primers. The thermocycling conditions were the following: 1 cycle of 12 min at 95° C., followed by 40 cycles of 15 at 95° C. […] The Ct value was determined by the MXPro software when the fluorescence level is 25% higher than the basal fluorescence. […]
Increases in proinflammatory markers have been reported in the muscles of older adults, as part of the process of losing muscle mass. Therefore, the effect of chronic exposure to high levels of extracellular ATP on mRNA levels of proinflammatory genes was evaluated. […]

fdb muscle fibers [5] = assay: ATP release from fdb muscle fibers after 20 Hz electrical stimulation (luciferin/luciferase); type: cell-based, mouse; conditions: pre-incubation 10 μM for 30 min
Method: Isolation of skeletal muscle fibers was performed from C57BL/J6 mice between 8 and 10 weeks of age. Isolated fibers were obtained from the flexor digitorum brevis (FoB) and Gastrocnemius muscle by enzymatic digestion for 90 min with 400 U/mL type II collagenase (Worthington Biochemicals Corp., Lakewood, NJ, USA) and mechanical dissociation with Pasteur pipettes, as previously described (Casas et.al, 2010). The isolated fibers were seeded in Petri dishes coated with a layer of Matrigel in Dulbecco's modified Eagle's culture medium (DMEM), supplemented with 10% horse serum, 50 U/mL penicillin and […] streptomycin. Cell cultures were used approximately 20 h after the fiber seeding process. All protocols were previously approved by the Bioethics Committee of the Faculty of Medicine of the University of Chile. […]
Extracellular ATP concentrations were determined using the CellTiter-Glo® Luminescent Cell Viability Assay Kit (Promega). […] After incubating for 10 min in the dark at room temperature, the samples were quantified in an FB12 (Berthold) luminometer. […] RNA normalization was preferred over total protein normalization since adult fiber cultures were seeded on a matrigel sheet, which has a large amount of protein and could alter the quantification process. […]

aged mice [6] = assay: Incremental strength test (weightlifting) in aged mice; type: in vivo, mouse
Method: The muscle function of aged mice (between 19 and 21 months of age) was assessed with an incremental strength test (weightlifting) and with an incremental treadmill running test. The measurement was made after 12 days of treatment with MP-2 (1 mg/Kg/day) administered via intraperitoneal injection. As a control, vehicle-injected mice were used in the same manner as drug-injected mice. Recovery of muscle function can be observed after treatment. Data were analyzed as the change in test performance at the end of treatment relative to performance at the start of treatment for each mouse. It is observed that the treatment improves the strength parameters more than 4 times with respect to the control. […] The mean±SEM is plotted. N=5 for each group, *: p<0.05
Two functional tests were performed in control (saline-injected) and MP-2-treated (daily intraperitoneal injections of 1 mg/Kg MP-2 for 12 days) mice.

aged mice [7] = assay: Incremental treadmill running test (endurance) in aged mice; type: in vivo, mouse
Method: The standardization of this test that evaluates resistance and strength was carried out in the treadmill equipment for rodents. The test consists of 5 sessions where the animals were acclimatized for 5 minutes at the equipment's minimum speed of 0.3 Km/h and the number of shots of compressed air that keep the animal trotting is counted. Once the acclimatization process was finished, the animals were evaluated in an incremental test consisting of 2-minute ramps at the minimum speed and then gradually increasing 0.1 Km/h after 2 minutes until the animal could no longer run. This maximum effort test is only performed once per session and is considered finished when the animal reaches the bottom of the ramp and accumulates 10 shots of compressed air in a period of 10 seconds.
The muscle function of aged mice (between 19 and 21 months of age) was assessed with an incremental strength test (weightlifting) and with an incremental treadmill running test. The measurement was made after 12 days of treatment with MP-2 (1 mg/Kg/day) administered via intraperitoneal injection. As a control, vehicle-injected mice were used in the same manner as drug-injected mice. Recovery of muscle function can be observed after treatment. Data were analyzed as the change in test performance at the end of treatment relative to performance at the start of treatment for each mouse. […]

[8] = aged mice 19-21 months, 1 mg/Kg/day i.p. for 12 days, change end vs start of treatment

T1 sequence (Q02789 whole entry): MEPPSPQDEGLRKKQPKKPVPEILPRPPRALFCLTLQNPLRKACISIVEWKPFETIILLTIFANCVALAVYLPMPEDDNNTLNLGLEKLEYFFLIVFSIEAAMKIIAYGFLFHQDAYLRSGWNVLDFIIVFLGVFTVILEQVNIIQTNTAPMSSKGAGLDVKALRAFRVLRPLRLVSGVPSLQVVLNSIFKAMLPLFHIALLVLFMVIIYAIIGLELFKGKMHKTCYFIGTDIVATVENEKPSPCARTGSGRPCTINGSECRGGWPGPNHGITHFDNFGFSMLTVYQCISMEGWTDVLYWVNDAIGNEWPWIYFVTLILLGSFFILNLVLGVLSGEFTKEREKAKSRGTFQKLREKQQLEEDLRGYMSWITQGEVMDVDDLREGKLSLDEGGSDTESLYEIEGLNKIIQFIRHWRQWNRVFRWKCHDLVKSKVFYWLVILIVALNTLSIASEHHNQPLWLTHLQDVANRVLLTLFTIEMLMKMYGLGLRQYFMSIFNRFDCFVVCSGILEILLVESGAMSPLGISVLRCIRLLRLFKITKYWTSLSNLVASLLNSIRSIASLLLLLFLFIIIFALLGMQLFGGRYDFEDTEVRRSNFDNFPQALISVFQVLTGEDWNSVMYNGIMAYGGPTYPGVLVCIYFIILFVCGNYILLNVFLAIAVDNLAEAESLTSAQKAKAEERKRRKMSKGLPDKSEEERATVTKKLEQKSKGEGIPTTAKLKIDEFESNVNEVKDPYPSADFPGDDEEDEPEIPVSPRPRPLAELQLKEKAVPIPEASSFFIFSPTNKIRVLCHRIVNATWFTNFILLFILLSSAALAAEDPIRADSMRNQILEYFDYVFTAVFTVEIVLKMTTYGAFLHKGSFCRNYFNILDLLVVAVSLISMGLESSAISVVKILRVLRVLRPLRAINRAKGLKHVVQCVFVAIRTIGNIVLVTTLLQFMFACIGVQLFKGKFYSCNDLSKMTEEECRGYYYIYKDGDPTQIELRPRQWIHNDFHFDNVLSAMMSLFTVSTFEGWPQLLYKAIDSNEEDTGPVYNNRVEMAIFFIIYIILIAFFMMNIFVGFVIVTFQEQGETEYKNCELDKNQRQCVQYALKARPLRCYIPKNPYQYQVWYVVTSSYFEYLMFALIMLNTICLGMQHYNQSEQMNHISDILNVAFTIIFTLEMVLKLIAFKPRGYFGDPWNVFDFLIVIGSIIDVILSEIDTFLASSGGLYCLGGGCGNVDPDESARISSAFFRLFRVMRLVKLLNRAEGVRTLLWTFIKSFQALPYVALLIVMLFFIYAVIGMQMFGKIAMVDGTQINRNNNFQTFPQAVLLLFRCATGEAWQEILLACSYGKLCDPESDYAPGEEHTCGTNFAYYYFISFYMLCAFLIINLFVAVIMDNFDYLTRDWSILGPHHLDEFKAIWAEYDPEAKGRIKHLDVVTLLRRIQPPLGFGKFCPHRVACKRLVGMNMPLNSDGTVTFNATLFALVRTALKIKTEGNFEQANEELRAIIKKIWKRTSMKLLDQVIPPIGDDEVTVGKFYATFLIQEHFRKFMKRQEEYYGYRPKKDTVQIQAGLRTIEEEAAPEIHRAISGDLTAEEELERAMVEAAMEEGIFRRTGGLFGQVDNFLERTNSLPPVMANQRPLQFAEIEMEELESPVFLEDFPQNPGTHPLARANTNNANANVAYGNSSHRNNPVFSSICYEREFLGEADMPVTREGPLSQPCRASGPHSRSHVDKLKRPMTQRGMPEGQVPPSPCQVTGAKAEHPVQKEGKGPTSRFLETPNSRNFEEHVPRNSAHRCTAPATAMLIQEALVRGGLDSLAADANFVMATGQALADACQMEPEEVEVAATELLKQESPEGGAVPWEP
T1 sequence (Q8R3Z5 whole entry partner): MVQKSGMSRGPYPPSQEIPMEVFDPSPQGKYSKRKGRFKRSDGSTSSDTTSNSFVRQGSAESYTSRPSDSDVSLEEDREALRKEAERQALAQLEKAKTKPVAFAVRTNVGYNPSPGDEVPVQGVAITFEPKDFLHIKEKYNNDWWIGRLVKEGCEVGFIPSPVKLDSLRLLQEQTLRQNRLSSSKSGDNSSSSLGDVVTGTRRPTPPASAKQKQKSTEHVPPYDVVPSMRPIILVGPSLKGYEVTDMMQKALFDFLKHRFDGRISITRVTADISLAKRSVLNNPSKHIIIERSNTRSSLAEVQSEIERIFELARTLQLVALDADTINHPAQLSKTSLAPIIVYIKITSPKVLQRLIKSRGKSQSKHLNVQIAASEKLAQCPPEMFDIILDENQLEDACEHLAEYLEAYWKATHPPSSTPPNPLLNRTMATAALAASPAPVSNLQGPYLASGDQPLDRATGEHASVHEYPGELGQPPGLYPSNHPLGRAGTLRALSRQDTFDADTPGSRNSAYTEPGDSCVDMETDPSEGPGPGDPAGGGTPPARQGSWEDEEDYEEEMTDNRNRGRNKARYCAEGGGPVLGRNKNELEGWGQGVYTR
T1 sequence (O08532 25-1103 partner): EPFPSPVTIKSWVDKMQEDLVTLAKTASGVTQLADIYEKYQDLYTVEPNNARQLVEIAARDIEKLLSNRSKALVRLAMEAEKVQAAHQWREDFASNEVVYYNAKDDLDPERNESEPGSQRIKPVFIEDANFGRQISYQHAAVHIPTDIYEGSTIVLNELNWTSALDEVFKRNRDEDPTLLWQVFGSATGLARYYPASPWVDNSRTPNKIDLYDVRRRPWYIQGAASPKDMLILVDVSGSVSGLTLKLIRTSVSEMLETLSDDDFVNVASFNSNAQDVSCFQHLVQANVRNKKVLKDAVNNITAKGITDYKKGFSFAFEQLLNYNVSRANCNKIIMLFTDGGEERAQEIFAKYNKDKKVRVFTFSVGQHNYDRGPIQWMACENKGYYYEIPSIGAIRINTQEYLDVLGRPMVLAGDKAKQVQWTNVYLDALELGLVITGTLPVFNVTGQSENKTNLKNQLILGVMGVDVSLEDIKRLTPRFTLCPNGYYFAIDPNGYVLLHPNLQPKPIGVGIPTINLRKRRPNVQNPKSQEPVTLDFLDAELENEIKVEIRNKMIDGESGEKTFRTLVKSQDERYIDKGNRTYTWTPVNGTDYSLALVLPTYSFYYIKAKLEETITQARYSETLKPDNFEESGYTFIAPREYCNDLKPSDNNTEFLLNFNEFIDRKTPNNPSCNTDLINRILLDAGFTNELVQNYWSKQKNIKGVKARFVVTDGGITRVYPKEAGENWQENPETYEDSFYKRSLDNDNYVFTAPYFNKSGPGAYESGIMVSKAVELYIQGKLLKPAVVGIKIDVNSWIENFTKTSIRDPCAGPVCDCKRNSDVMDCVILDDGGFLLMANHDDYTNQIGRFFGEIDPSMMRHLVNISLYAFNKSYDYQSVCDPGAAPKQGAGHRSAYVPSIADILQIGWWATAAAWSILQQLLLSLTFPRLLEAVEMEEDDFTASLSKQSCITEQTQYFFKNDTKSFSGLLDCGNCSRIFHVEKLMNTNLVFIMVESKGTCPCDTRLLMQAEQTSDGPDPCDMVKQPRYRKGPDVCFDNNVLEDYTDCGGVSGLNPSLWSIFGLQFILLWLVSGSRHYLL
T1 sequence (O70578 whole entry partner): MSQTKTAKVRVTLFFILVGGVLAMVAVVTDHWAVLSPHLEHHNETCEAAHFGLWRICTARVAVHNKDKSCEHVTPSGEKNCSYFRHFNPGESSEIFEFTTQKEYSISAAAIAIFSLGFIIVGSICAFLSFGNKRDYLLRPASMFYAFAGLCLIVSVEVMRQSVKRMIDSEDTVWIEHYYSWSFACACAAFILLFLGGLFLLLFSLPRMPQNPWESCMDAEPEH

For `COC(=O)C1=C(C)NC(C)=C([N+](=O)[O-])[C@H]1c1ccccc1C(F)(F)F` [(S)-(−)-BayK-8644], which “effect on Ca^2+ current through the DHPR channel (earlier work)” value [1] is on record?
Its value is “increases Ca^2+ current”.

What about the “ATP outflow after electrical stimulation of the muscle fiber (earlier work)” value (fdb muscle fibers [2]) of the same compound?
The value was “also inhibits ATP release”.

With `COCCOC(=O)C1=C(C)NC(C)=C(C(=O)OC(C)C)C1c1cccc([N+](=O)[O-])c1` (stereo not drawn) [Nimodipine] as the compound, how does the inhibition at 10 µM [3] read?
The inhibition at 10 µM was 48 ± 10%.

With `COC(=O)C1=C(C)NC(C)=C(C(=O)OCC(C)C)C1c1ccccc1[N+](=O)[O-]` (stereo not drawn) [Nisoldipine] as the compound, how does the inhibition at 10 µM [3] read?
Its inhibition at 10 µM is 14.3 ± 7%.

For `CCOC(=O)C1=C(C)NC(C)=C(C(=O)OC)C1c1cccc([N+](=O)[O-])c1` (stereo not drawn) [Nitrendipine], which inhibition at 10 µM [3] is on record?
The inhibition at 10 µM was 47.6 ± 2%.

Which “mRNA levels of proinflammatory genes (TNF-α and IL-6)” value [4] does the source give for `Nc1ncnc2c1ncn2[C@@H]1O[C@H](COP(=O)(O)OP(=O)(O)OP(=O)(O)O)[C@@H](O)[C@H]1O` [ATP] here?
The value was “increase”.

With `COC(=O)C1=C(C)NC2=C(C(=O)OC2)C1c1ccccc1[N+](=O)[O-]` (stereo not drawn) [MP-2, methyl 2-methyl-4-(2-nitrophenyl)-5-oxo-1,4,5,7-tetrahydrofuro [3,4-b]pyridine-3-carboxylate] as the compound, how does the inhibition at 10 µM [3] read?
The inhibition at 10 µM was 50 ± 8%.

And the “inhibition of ATP outflow induced by 20 Hz electrical stimulation” value (fdb muscle fibers [5])?
The value was “inhibits the outflow of ATP; also recorded: indistinguishable from that of nifedipine”.

What about the “inhibition of ATP outflow induced by 20 Hz electrical stimulation” value (fdb muscle fibers [5]; listed as MP2) of the same compound?
The value was “inhibits in a similar way as nifedipine”.

What about the “improvement of strength parameters with respect to the control” value (aged mice [6]; [8]) of the same compound?
Its value is “more than 4 times”.

And the “muscle strength in aged mice” value (aged mice [6]; aged mice (age>18 months))?
The value was “substantially improves their muscle strength”.

And the “improvement in weight test (measure of strength)” value (aged mice [6]; daily i.p. 1 mg/Kg for 12 days)?
The value was 64.4%.

What about the “increase in Endurance test (incremental treadmill test) over the control” value (aged mice [7]; [8]) of the same compound?
Its value is roughly 5 times.

What about the “improvement in treadmill test (measure of resistance)” value (aged mice [7]; daily i.p. 1 mg/Kg for 12 days) of the same compound?
Its value is 25%.

For `COC(=O)C1=C(C)NC(C)=C(C(=O)OCCN(C)Cc2ccccc2)C1c1cccc([N+](=O)[O-])c1` (stereo not drawn) [Nicardipine], which inhibition at 10 µM [3] is on record?
The inhibition at 10 µM was 32.6 ± 8%.
